Data reported in patent publication US11759439B2, “Bromhexine for the treatment of pain” (priority 2017, dated 2023).
Entries after “also recorded” stand apart in the source; their conditions may differ.

Key:
[1] = tested on: patient with osteoarthritis in both knees and chronic postsurgical pain (CPSP) after knee replacement; experiment: Case report 1: topical bromhexine cream, NRS pain score, knees; format: in vivo, human
From the text: (§1) In the following Examples a dermal topical cream was used comprising 20% (w/w) bromhexine HCl (10 g), medium-chain triglycerides (MCTs; Triglycerida Saturata Medium Migloyol® 812N, FAGRON GmbH & Co. KG, Cas No. 73398-61-5) (5 g), Linola Creme ad 50 g (Dr. August Wolff GmbH & Co. KG Arzneimittel, PZN 02489672; emulsion O/W containing unsaturated fatty acids (C182), carbomer 980, decyloleat, glycerol monosterate, ceteareth-3, phenoxyethanol, stearic acid, trometamol, wax bleached and purified water), unless stated otherwise. The dermal topical cream was prepared by mixing bromhexine with the MCTs and adding the Linola Creme to obtain a homogenous cream. We chose a dermal topical cream rather than a gel, because a cream is better absorbed by the skin. Bromhexine was fast and easy to formulate into a topical pharmaceutical composition, particularly into a homogenous cream.
(§2) The dermal topical cream was administered (thinly) to the skin in the affected area and a beneficial effect was typically noticed within 30 min. The effect lasted for about 4 to 12 hours, typically 6 hours. For long term treatment the cream was administered 2 to 3 times per day. In some cases a once daily administration was sufficient.
(§3) In all case reports shown below, the intensity of pain is reported with the NRS-Score (NRS=numeric rating scale) on which the patient rates their pain between ‘0=no pain’ and ‘10=unbearable pain’. The NRS-Score is the standard of pain evaluation in international publications and according to the literature an intensity of NRS 3 or lower usually is felt as ‘tolerable’ by patients with chronic pain.
A patient suffered from osteoarthritis in both knees and had received knee replacement followed by chronic postsurgical pain (CPSP) in one of it. […] Starting on a pain level of NRS 7, 30 min after topical bromhexine the pain decreased to NRS 6 and to NRS 4 within 2 hours. […] On another occasion the pain was reduced in both knees from NRS 6 before bromhexine treatment to NRS 3 after 2 hours.

[2] = tested on: patient with neuropathic pain in both feet; experiment: Case report 2: topical bromhexine cream, NRS pain score, neuropathic forefoot pain; format: in vivo, human; conditions: for effect of earlier treatment (patient history): before bromhexine
From the text: as §1, §2, §3
The […] presented neuropathic pain in both feet and felt “running on coals” and as “gripped in a vice”, walking or gardening were almost impossible. It could not be explained in orthopaedic terms and no polyneuropathy was detected on neurographic investigation. […] Gabapentin, opiates and topical lidocaine were not helpful. After topical bromhexine the pain of NRS 5 during the heel-to-toe roll and the forefoot touch sensitivity decreased to NRS 1 within 15 min and disappeared after 30 min for hours (FIG. 6, last columns, “neuropathic forefoot pain”).

[3] = tested on: patient with postherpetic neuralgia; experiment: Case report 4: topical bromhexine, postherpetic neuralgia; format: in vivo, human; conditions: for pain in the treated area (NRS): untreated abdominal area unchanged
From the text: as §1, §2, §3
A patient contracted an infection with the herpes zoster virus followed by skin eruptions 3 years ago. In the affected area of the right thorax they developed a dynamic allodynia and pinprick hyperalgesia and hypersensitivity to cold and airbrush which spread out circular to the abdominal region. Only the dorsal part of the area was treated with bromhexine. […]

[4] = tested on: patient with fibromyalgia pain; experiment: Case report 11: topical bromhexine, fibromyalgia pain of the hands; format: in vivo, human
From the text: as §1
as §2, with “sufficient. […]” for “sufficient.”

[5] = tested on: patient with pain in right hand and wrist due to osteoarthritis; experiment: Case report 3: topical bromhexine cream, NRS pain score, osteoarthritis of hand and wrist; format: in vivo, human; conditions: within 2 hours after topical bromhexine cream; NRS 6 before treatment
From the text: as §1
as §2, with “sufficient. […]” for “sufficient.”

[6] = tested on: patient with chronic pain caused by osteoarthritis of the fingers; experiment: Case report 9: topical bromhexine, osteoarthritis of the fingers; format: in vivo, human; conditions: 15 min after topical bromhexine; before: incomplete and very painful
From the text: as §1, §2
A patient with chronic pain caused by osteoarthritis of the fingers for many years. Forming a fist was incomplete and very painful. […]

[7] = tested on: patient with painful left knee after meniscus surgery; experiment: Case report 3: topical bromhexine, NRS pain score, knee pain after meniscus surgery; format: in vivo, human; conditions: after bromhexine treatment; NRS 8 before; time not stated
From the text: as §1
as §2, with “sufficient. […]” for “sufficient.”

[8] = tested on: patient with severe fibromyalgia pain; experiment: Case report 10: topical bromhexine, severe fibromyalgia; format: in vivo, human; conditions: 25 min after topical bromhexine
From the text: as §1, §2
A patient with severe fibromyalgia pain presented an exacerbation with painful hand/finger movements and swelling. […] The patient was surprised about the reduced swelling, the possibility of the closure of fist and a reduction of the functional impairment during movement. Closure of the fist was only possible to a half-closed position without (or almost no) pain before treatment (FIG. 4C, top panel).

[9] = in vivo; cited from earlier work
mucus = conditions: cited from earlier work
[10] = tested on: patient with severe chronic low back pain and S1 radiculopathy; experiment: Case report 5: topical bromhexine, low back pain (S1-radiculopathy); format: in vivo, human
From the text: as §1
as §2, with “sufficient. […]” for “sufficient.”

treated patients = experiment: Topical bromhexine cream in pain patients: onset, duration, side effects (all cases); format: in vivo, human
From the text: as §1
as §2, with “sufficient. […]” for “sufficient.”

[11] = tested on: patient with complex regional pain syndrome (CRPS); experiment: Case report 7: topical bromhexine, complex regional pain syndrome (CRPS); format: in vivo, human; conditions: 30-45 min following the treatment
From the text: as §1
as §2, with “sufficient. […]” for “sufficient.”

[12] = tested on: patient with rheumatoid arthritis and fibromyalgia; experiment: Case report 6: topical bromhexine cream, rheumatoid arthritis and fibromyalgia, hands; format: in vivo, human
From the text: as §1, §2
A rheumatoid arthritis and fibromyalgia for many years developed a chronic pain disease in a person. Hands were distorted painfully and movements like the closure of fist were only possible very slowly and the movement was painful and incomplete. Self-supply was threatened. The medical options for pain therapy were limited due to long-term side effects on stomach, kidney, cardiovascular system and liver by nonsteroidal anti-rheumatic drugs (NSAIDS) or coxibes as well as the risk of tumbling caused by central nervous effects as sedation and dizziness. Bromhexine cream was applied at both hands. Already 2 min later the patients started to move both hands and ‘searched their pain’ because it was improved and movements could be performed more easily, quickly and complete. […]

[13] = tested on: patient with chronic severe pain syndrome of both hands and arms from unclear origin; experiment: Case report 8: topical bromhexine, chronic unclear severe pain syndrome of hands and arms; format: in vivo, human
From the text: as §1, §2
Further the extent of possible finger spreading was much better in their left hand, which was treated with the bromhexine compared to their untreated right hand (FIG. 1 C). Particularly the extent of the “pain limited” finger spreading of their bromhexine treated left hand hand compared to their untreated right hand increased. In their untreated right hand pain started immediately with the first movement. Further, the extent of possible free of pain elbow rotation 20 min after bromhexine in their left treated elbow increased (FIG. 1D, bottom panel). No movement free of pain was possible in their right elbow (FIG. 1D, top panel).

[14] = molecular target: T1, tetrodotoxin-resistant (TTXr) Na+ currents encoded by Nav1.8 (Homo sapiens, UniProt Q9Y5Y9); conditions: preference for TTXr Na+ currents encoded by Nav1.8; cited from earlier work
T1 construct: host or cells: sensory neurons

humans = conditions: cited from earlier work
rodents = conditions: cited from earlier work

SMILES: CCN(CC)CC(=O)Nc1c(C)cccc1C [lidocaine]
- effect of earlier treatment (patient history) ([1]; topical plasters, before bromhexine): not been helpful
- effect of earlier treatment (patient history) [2]: not helpful

SMILES: CN(Cc1cc(Br)cc(Br)c1N)C1CCCCC1 [bromhexine, 2,4-dibromo-6-[[cyclohexyl(methyl)amino]methyl]aniline]
- pain in the treated area (NRS) ([3]; after 15 min): 4 NRS
- pain in the treated area (NRS) ([3]; after 30 min): 1 NRS
- tingling sensation and subjective hypersensitivity ([3]; after the first few minutes, treated dorsal area): disappeared completely
- stabbing ([4]; 30 min following topical bromhexine): disappeared
- pain in both hands with tension, stiffness, swelling and stabbing ([4]; 30 min following topical bromhexine to the hands, NRS 5 before): disappeared broadly
- pain (NRS) [5]: 0.5 NRS
- closure of the fist [6]: closed completely and with reduced pain; also recorded: performed completely and with reduced pain
- pain intensity (NRS) [7]: 4.5 NRS
- pain level (NRS) ([1]; 30 min after topical bromhexine, starting pain level NRS 7, knee with CPSP): 6 NRS
- pain level (NRS) ([1]; another occasion, both knees, NRS 6 before bromhexine, after 2 hours): 3 NRS
- pain level (NRS) ([1]; within 2 hours after topical bromhexine, starting pain level NRS 7, knee with CPSP): 4 NRS
- swelling of the treated right hand [8]: strongly reduced
- closure of the fist ([8]; before: only half-closed without pain): completely possible without pain; also recorded: closed completely and without pain
- movement of the thumb to the palm ([8]; impossible before): free of pain; also recorded: not any longer limited by pain
- bioavailability [9]: relatively low
- hepatic first-pass effect [9]: up to 80%
- passage of the blood-brain barrier [9]: pass the blood-brain barrier
- secretion volume (mucus; in vivo): increases
- viscosity of the sputum (mucus; in vivo): decreases
- side-effects (mucus; known oral use): very few side-effects
- stabbing sensations ([10]; after bromhexine): reduced
- pain level (NRS) ([10]; within 30 minutes, NRS 6 before bromhexine): about 4
- side effects (treated patients): None of the treated patients reported side effects
- motions of the hand [11]: without stabbing sensations
- burning pain (NRS) ([11]; 8 NRS before): 3 NRS
- closure of fist ([12]; 5 min after topical bromhexine, both hands): improved notable in motion sequence; also recorded: improved notably in motion sequence
- time to first improvement of pain and movements ([12]; after application of bromhexine cream at both hands): 2 min
- duration of the improvement ([12]; in vivo): several hours
- swelling in the treated area ([13]; 20 min after bromhexine): reduction of swelling
- extent of possible free of pain elbow rotation ([13]; 20 min after bromhexine, left treated elbow): increased
- reddening of the treated left hand ([13]; 20 min following topical bromhexine, right hand untreated): reduction of reddening
- pain and feeling of swelling and tension ([13]; 20 min following topical bromhexine, treated left hand): impressive reduction
- movements of the left hand and arm ([13]; about 30 min after bromhexine, none free of pain in untreated right arm): able to perform movements free of pain; also recorded: diverse possible movements free of pain
- extent of possible finger spreading ([13]; treated left hand compared to untreated right hand, 20 min): much better
- functional impairment of walking ([2]; 8 hours later): without recurrence
- pain level (NRS) ([2]; 8 hours later, NRS 5 before): 2 NRS
- pain during heel-to-toe roll and forefoot touch sensitivity ([2]; after 30 min, for hours, NRS 5 before): disappeared
- pain level (NRS) during heel-to-toe roll and forefoot touch sensitivity ([2]; within 15 min after topical bromhexine, NRS 5 before): 1 NRS

SMILES: NCC1(CC(=O)O)CCCCC1 [Gabapentin]
- effect of earlier treatment (patient history) [2]: not helpful

SMILES: Nc1c(Br)cc(Br)cc1CN[C@H]1CC[C@H](O)CC1 [Ambroxol]
- Na+ currents in sensory neurons [14]: block Na+ currents
- pain (humans): alleviate pain
- pain-related behavior (rodents): reduce pain-related behavior
